Laboratory results taken from patent US12208105B2, “Methods for attenuating graft-versus-host disease and opportunistic infections” (priority 2018, dated 2025).
Read-outs that look alike come from different tables or passages of the source.

Columns and labels:
[1] = cited from earlier work
donor Tcon accumulation = experiment: Organ eGFP quantification (donor Tcon accumulation, anti-eGFP ELISA); type: in vivo, mouse
CCR7 = target: T1, CCR7 (Homo sapiens, UniProt P32248); experiment: HTS primary reporter assay, human CCR7; type: cell-based
T1 sequence (P32248 25-378): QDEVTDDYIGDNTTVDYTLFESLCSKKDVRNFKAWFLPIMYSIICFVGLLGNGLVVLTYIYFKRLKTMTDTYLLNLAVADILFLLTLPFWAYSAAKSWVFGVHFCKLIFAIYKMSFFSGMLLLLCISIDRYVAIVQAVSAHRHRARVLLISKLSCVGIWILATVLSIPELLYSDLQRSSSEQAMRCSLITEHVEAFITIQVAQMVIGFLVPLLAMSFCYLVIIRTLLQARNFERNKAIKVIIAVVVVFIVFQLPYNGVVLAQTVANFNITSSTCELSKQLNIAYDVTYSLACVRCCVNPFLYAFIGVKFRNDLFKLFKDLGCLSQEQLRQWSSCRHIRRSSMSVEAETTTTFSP

[2] = day +14, Tcons incubated 15 μg/ml

CC(C)CCC[C@@H](C)[C@H]1CC[C@H]2[C@@H]3CC[C@H]4C[C@@H](CCC=C(c5cc(Cl)c(O)c(C(=O)O)c5)c5cc(Cl)c(O)c(C(=O)O)c5)CC[C@]4(C)[C@H]3CC[C@]12C [Cosalane, cosalane]
tissue accumulation ([1]; administered intravenously): propensity to accumulate within the liver
oral bioavailability ([1]; in vivo, po): very poor oral bioavailability
donor Tcon numbers within the spleen, ILN, and MLN (donor Tcon accumulation; 36 hours after transplant, Tcons incubated 15 μg/ml): significant reduction in donor Tcon numbers
donor Tcon accumulation in secondary lymphoid tissues and aGVHD target organs (donor Tcon accumulation; day +7, Tcons incubated 15 μg/ml): no differences in donor Tcon accumulation
donor Tcon accumulation within host lymphoid sites (donor Tcon accumulation; [2]): no differences in donor Tcon accumulation
donor Tcons within the colon and liver (donor Tcon accumulation; [2]): significant reduction in donor Tcons
IC50 (CCR7; ligand CCL19, read-out: Human CCR7 IC50 To CCL19): 207 nM
IC50 (CCR7; ligand CCL21, read-out: Human CCR7 IC50 To CCL21): 2660 nM
